The text below walks through data of US20230015478A1, “GLP-1 RECEPTOR AGONISTS HAVING IMPROVED PHARMACOLOGICAL AND DRUG DELIVERY PROPERTIES” (priority 2021, published 2023).

Like-named read-outs stand apart in the source and are kept apart here. Numbered stars: 1 amine (or outer) side, 2 acyl side, 3 side chain; on linkers, the order of the positions; unused ones are H or OH. Square brackets hold non-standard residues; d marks the D form. Peptide text beside a SMILES is read from it. Bip = N[C@@H](Cc1ccc(-c2ccccc2)cc1)C(=O)O; X1 = C[C@@](CCc1ccccc1)(N[*:1])C(=O)[*:2]; αMePhe(2-F) = C[C@](N)(Cc1ccccc1F)C(=O)O; hTyr = N[C@@H](CCc1ccc(O)cc1)C(=O)O; hPhe = N[C@@H](CCc1ccccc1)C(=O)O; αMeF = C[C@](N)(Cc1ccccc1)C(=O)O; αMeP = C[C@@]1(C(=O)O)CCCN1; AEEA = NCCOCCOCC(=O)O; Aib = CC(C)(N)C(=O)O

For this test, the target named is T1, hGLP1 receptor (Homo sapiens, UniProt P43220).
T1 construct: expressed in transfected cells; host or cells: HEK (human embryonic kidney) cells co-expressing hGLP1 receptor and CRE-Luciferase
T1 sequence (P43220 24-463): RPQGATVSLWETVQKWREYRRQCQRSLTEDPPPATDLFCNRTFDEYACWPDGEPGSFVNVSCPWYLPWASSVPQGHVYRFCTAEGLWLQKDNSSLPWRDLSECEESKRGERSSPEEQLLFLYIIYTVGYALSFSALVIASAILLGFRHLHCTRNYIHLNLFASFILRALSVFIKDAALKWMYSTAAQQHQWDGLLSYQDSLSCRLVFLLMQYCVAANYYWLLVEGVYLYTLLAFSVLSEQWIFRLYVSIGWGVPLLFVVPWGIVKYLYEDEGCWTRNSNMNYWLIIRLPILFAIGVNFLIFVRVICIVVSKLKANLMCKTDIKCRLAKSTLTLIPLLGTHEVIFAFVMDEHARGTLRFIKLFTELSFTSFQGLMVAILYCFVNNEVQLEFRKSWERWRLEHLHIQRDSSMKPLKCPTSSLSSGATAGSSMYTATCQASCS
In words: cAMP HTRF agonist assay in HEK cells co-expressing hGLP1 receptor and CRE-Luciferase. Format: cell-based. The following applies: for potency compared with the parent peptide analog (1-2): replacement of Aib2, in words. The procedure, abridged: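 HEK cells co-expressing hGLP1R and CRE-luciferase, 1000 cells/well in DPBS with 500 μM IBMX, exposed to peptides or exendin-4 reference for 30 min; 11-point 1:3 series from top 1.0 μM. cAMP measured by HTRF (665/615 nm) after 1 h at room temperature; EC50 from 4-parameter logistic fit.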
(Time-resolved FRET reads energy transfer from a long-lived donor to a nearby acceptor.)

Setting [1] is: cAMP EC50, nM (0.1% albumin), Table 4, 0.1% albumin.
[2] abbreviates: Table 5, 0% albumin, read-out: cAMP EC50, nM (0% albumin).
Setting [3] is: cAMP EC50, nM (0.1% albumin), Table 6, 0.1% albumin.

Broadly, the EC50 is the concentration at which the effect is half-maximal. `C[C@@H](O)[C@H](NC(=O)CNC(=O)[C@H](CCC(=O)O)NC(=O)[C@@H]1CCCN1C(=O)[C@@H](N)Cc1c[nH]cn1)C(=O)N[C@@](C)(Cc1ccccc1F)C(=O)N[C@H](C(=O)N[C@@H](CO)C(=O)N[C@@H](CC(=O)O)C(=O)N[C@@H](Cc1ccc(-c2ccccc2)cc1)C(=O)N[C@@H](Cc1ccc(-c2ccccc2)cc1)C(N)=O)[C@@H](C)O` [3-38, H2N-His-Pro-Glu-Gly-Thr-α-MePhe(2-F)-Thr-Ser-Asp-Bip-Bip-C(O)NH2] (H-HPEGT[αMePhe(2-F)]TSD[Bip][Bip]-NH2) displayed a concentration giving a half-maximal response (EC50) under setting [1] of 0.04 nM.

Take `CC(C)[C@H](NC(=O)[C@@H](N)Cc1c[nH]cn1)C(=O)N[C@@H](CCC(=O)O)C(=O)NCC(=O)N[C@H](C(=O)N[C@@](C)(Cc1ccccc1F)C(=O)N[C@H](C(=O)N[C@@H](CO)C(=O)N[C@@H](CC(=O)O)C(=O)N[C@@H](Cc1ccc(-c2ccccc2)cc1)C(=O)N[C@@H](Cc1ccc(-c2ccccc2)cc1)C(N)=O)[C@@H](C)O)[C@@H](C)O` [3-39, H2N-His-Val-Glu-Gly-Thr-α-MePhe(2-F)-Thr-Ser-Asp-Bip-Bip-C(O)NH2] (H-HVEGT[αMePhe(2-F)]TSD[Bip][Bip]-NH2): the “potency compared with the parent peptide analog (1-2)” value is given as “slightly less potency”. This compound came in with an EC50 under setting [1] of 0.37 nM.

For the compound `C[C@@H](O)[C@H](NC(=O)CNC(=O)[C@H](CCC(=O)O)NC(=O)[C@]1(C)CCCN1C(=O)[C@@H](N)Cc1c[nH]cn1)C(=O)N[C@@](C)(Cc1ccccc1F)C(=O)N[C@H](C(=O)N[C@@H](CO)C(=O)N[C@@H](CC(=O)O)C(=O)N[C@@H](Cc1ccc(-c2ccccc2)cc1)C(=O)N[C@@H](Cc1ccc(-c2ccccc2)cc1)C(N)=O)[C@@H](C)O` [3-40, H2N-His-α-MePro-Glu-Gly-Thr-α-MePhe(2-F)-Thr-Ser-Asp-Bip-Bip-C(O)NH2] (H-H[αMeP]EGT[αMePhe(2-F)]TSD[Bip][Bip]-NH2), the “potency compared with the parent peptide analog (1-2)” value is reported as “significantly greater potency”. Under setting [1], this compound displayed an EC50 of 0.003 nM. On to `C[C@@H](O)[C@H](NC(=O)CNC(=O)[C@H](CCC(=O)O)NC(=O)C1(C)CCCN1C(=O)[C@@H](N)Cc1c[nH]cn1)C(=O)NC(C)(Cc1ccccc1F)C(=O)N[C@H](C(=O)N[C@@H](CO)C(=O)N[C@@H](CC(=O)O)C(=O)NC(C)(C)C(=O)N[C@@H](Cc1ccc(-c2ccccc2)cc1)C(N)=O)[C@@H](C)O` (stereo partly drawn) [3-60, H2N-His-α-MePro-Glu-Gly-Thr-α-MePhe(2-F)-Thr-Ser-Asp-Aib-Bip-C(O)NH2], for which, under setting [1], the EC50 was more than 1000 nM. The same measure, in the same setting: the same measure for `C[C@@H](O)[C@H](NC(=O)CNC(=O)[C@H](CCC(=O)O)NC(=O)[C@]1(C)CCCN1C(=O)[C@@H](N)Cc1c[nH]cn1)C(=O)N[C@@](C)(Cc1ccccc1)C(=O)N[C@H](C(=O)N[C@@H](CO)C(=O)N[C@@H](CC(=O)O)C(=O)N[C@@H](Cc1ccc(-c2ccccc2)cc1)C(=O)NC(C)(C)C(N)=O)[C@@H](C)O` [3-61, H2N-His-α-MePro-Glu-Gly-Thr-α-MePhe-Thr-Ser-Asp-Bip-Aib-C(O)NH2] (H-H[αMeP]EGT[αMeF]TSD[Bip][Aib]-NH2): 8.3 nM; for `C[C@@H](O)[C@H](NC(=O)CNC(=O)[C@H](CCC(=O)O)NC(=O)C(C)(C)NC(=O)[C@@H](N)Cc1c[nH]cn1)C(=O)N[C@@](C)(Cc1ccccc1F)C(=O)N[C@@H](CC(N)=O)C(=O)N[C@@H](CO)C(=O)N[C@@H](CC(=O)O)C(=O)N[C@@H](Cc1ccc(-c2ccccc2)cc1)C(=O)N[C@@H](Cc1ccc(-c2ccccc2)cc1)C(N)=O` [3-62, H2N-His-Aib-Glu-Gly-Thr-α-MePhe(2-F)-Asn-Ser-Asp-Bip-Bip-C(O)NH2] (H-H[Aib]EGT[αMePhe(2-F)]NSD[Bip][Bip]-NH2): 3.1 nM. Turning to `C[C@@H](O)[C@H](NC(=O)CNC(=O)[C@H](CCC(=O)O)NC(=O)C(C)(C)NC(=O)[C@@H](N)Cc1c[nH]cn1)C(=O)N[C@@](C)(Cc1ccccc1F)C(=O)N[C@H](C(=O)N[C@@H](CO)C(=O)N[C@@H](CC(=O)O)C(=O)N[C@@H](Cc1ccc(-c2ccccc2)cc1)C(=O)N[C@@H](CCc1ccccc1)C(=O)O)[C@@H](C)O` [4-1, H2N-His-Aib-Glu-Gly-Thr-α-MePhe(2-F)-Thr-Ser-Asp-Bip-Hph-C(O)OH] (H-H[Aib]EGT[αMePhe(2-F)]TSD[Bip][hPhe]-OH), the 50% effective concentration (EC50) under setting [2] stood at 272 nM. For the same compound, for the setting “relative to parent 1-4”, the “fold lower potency than the parent peptide (1-4)” value was “about 30 fold”. On to `C[C@@H](O)[C@H](NC(=O)CNC(=O)[C@H](CCC(=O)O)NC(=O)C(C)(C)NC(=O)[C@@H](N)Cc1c[nH]cn1)C(=O)N[C@@](C)(Cc1ccccc1F)C(=O)N[C@H](C(=O)N[C@@H](CO)C(=O)N[C@@H](CC(=O)O)C(=O)N[C@@H](Cc1ccc(-c2ccccc2)cc1)C(=O)N[C@@](C)(CCc1ccccc1)C(N)=O)[C@@H](C)O` [4-2, H2N-His-Aib-Glu-Gly-Thr-α-MePhe(2-F)-Thr-Ser-Asp-Bip-α-MeHph-C(O)NH2] (H-H[Aib]EGT[αMePhe(2-F)]TSD[Bip][X1]-NH2), for which the half-maximal effective concentration (EC50) under setting [2] turned out to be 5.5 nM. The same measure, in the same setting: the same measure for `C[C@@H](O)[C@H](NC(=O)CNC(=O)[C@H](CCC(=O)O)NC(=O)C(C)(C)NC(=O)[C@@H](N)Cc1c[nH]cn1)C(=O)N[C@@](C)(Cc1ccccc1F)C(=O)N[C@H](C(=O)N[C@@H](CO)C(=O)N[C@@H](CC(=O)O)C(=O)N[C@@](C)(CCc1ccccc1)C(=O)N[C@@H](Cc1ccc(-c2ccccc2)cc1)C(N)=O)[C@@H](C)O` [4-3, H2N-His-Aib-Glu-Gly-Thr-α-MePhe(2-F)-Thr-Ser-Asp-α-MeHph-Bip-C(O)NH2] (H-H[Aib]EGT[αMePhe(2-F)]TSD[X1][Bip]-NH2): 184 nM. As for `C[C@@H](O)[C@H](NC(=O)CNC(=O)[C@H](CCC(=O)O)NC(=O)C(C)(C)NC(=O)[C@@H](N)Cc1c[nH]cn1)C(=O)N[C@@](C)(Cc1ccccc1F)C(=O)N[C@H](C(=O)N[C@@H](CO)C(=O)N[C@@H](CC(=O)O)C(=O)N[C@@H](Cc1ccc(-c2ccccc2)cc1)C(=O)N[C@@H](CCc1ccc(O)cc1)C(N)=O)[C@@H](C)O` [4-4, H2N-His-Aib-Glu-Gly-Thr-α-MePhe(2-F)-Thr-Ser-Asp-Bip-Hph(4-OH)-C(O)NH2] (H-H[Aib]EGT[αMePhe(2-F)]TSD[Bip][hTyr]-NH2), the concentration for a half-maximal effect (EC50) reads like this: under setting [2], 16.6 nM; under setting [3], 16.6 nM. Turning to `C[C@@H](O)[C@H](NC(=O)CNC(=O)[C@H](CCC(=O)O)NC(=O)C(C)(C)NC(=O)[C@@H](N)Cc1c[nH]cn1)C(=O)N[C@@](C)(Cc1ccccc1F)C(=O)N[C@H](C(=O)N[C@@H](CO)C(=O)N[C@@H](CC(=O)O)C(=O)N[C@@H](Cc1ccc(-c2ccccc2)cc1)C(=O)N[C@@H](Cc1ccc(-c2ccccc2)cc1)C(=O)N[C@@H](CCCCN)C(N)=O)[C@@H](C)O` [4-28, H2N-His-Aib-Glu-Gly-Thr-α-MePhe(2F)-Thr-Ser-Asp-Bip-Bip-Lys-NH2] (H-H[Aib]EGT[αMePhe(2-F)]TSD[Bip][Bip]K-NH2), the EC50 under setting [3] was 16.1 nM. In the case of `C[C@@H](O)[C@H](NC(=O)CNC(=O)[C@H](CCC(=O)O)NC(=O)C(C)(C)NC(=O)[C@@H](N)Cc1c[nH]cn1)C(=O)N[C@@](C)(Cc1ccccc1F)C(=O)N[C@H](C(=O)N[C@@H](CO)C(=O)N[C@@H](CC(=O)O)C(=O)N[C@@H](Cc1ccc(-c2ccccc2)cc1)C(=O)N[C@@H](Cc1ccc(-c2ccccc2)cc1)C(=O)NCCOCCOCC(=O)NCCOCCOCC(N)=O)[C@@H](C)O` [4-29, H2N-His-Aib-Glu-Gly-Thr-α-MePhe(2F)-Thr-Ser-Asp-Bip-Bip-C(O)(AEEA)2-NH2] (H-H[Aib]EGT[αMePhe(2-F)]TSD[Bip][Bip][AEEA][AEEA]-NH2), the response under setting [3] was half-maximal at 10 nM (EC50).
